This assay concerns AMP-activated protein kinase (AMPK). Nature of the assay: ADP Quest assay for AMPK activators. Details: key: fold AMPK activation with vs without activator at 30 µM. Format: biochemical. Particulars: fold of AMPK activation to phosphorylate SAMS peptide without and with an activator at the concentration of 30 µM. In outline:
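AMPK phosphorylation of SAMS peptide with ATP monitored kinetically at room temperature by ADP Quest fluorescence (ex 530/em 590 nm), reaction started with enzyme. Compounds tested […] in 2-fold dilutions, AMP as reference. E30 is fold activation at 30 µM activator versus none.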
For the compound `CC1(C)Cc2cc(C(=O)O)ccc2NC1c1cc(Cl)cc(NC(=O)c2ccccc2)c1` (centres unmarked) [Example 202, 2-(3-Benzamido-5-chlorophenyl)-3,3-dimethyl-1,2,3,4-tetrahydroquinoline-6-carboxylic acid], the E30 stood at 1.22.

Consider `CC(C)C1COC(=O)N1c1cccc(C2Nc3ccc(C(=O)O)cc3CC2(C)C)c1` (stereo in doubt) [Example 119, 2-[3-((S)-4-Isopropyl-2-oxo-oxazolidin-3-yl)-phenyl]-3,3-dimethyl-1,2,3,4-tetrahydro-quinoline-6-carboxylic acid], for which the E30 stood at 1.5.

Turning to `CC1(C)Cc2cc(C(=O)O)ccc2NC1c1cccc(C(=O)NS(C)(=O)=O)c1` (centres unmarked) [Example 179, 3,3-Dimethyl-2-(3-(methylsulfonylcarbamoyl)-phenyl)-1,2,3,4-tetrahydroquinoline-6-carboxylic acid], the E30 turned out to be 1.33.

Compound `CC1(C)Cc2cc(C(=O)NS(C)(=O)=O)ccc2NC1c1cc(F)cc(N2CCCC2)c1` (centres unmarked) [Example 61, N-[2-(3-Fluoro-5-pyrrolidin-1-yl-phenyl)-3,3-dimethyl-1,2,3,4-tetrahydro-quinoline-6-carbonyl]-methanesulfonamide] displayed an E30 of 1.61.

As for `CC1(C)Cc2cc(C(=O)O)ccc2NC1c1ccc(NC(=O)c2ccc(F)cc2)cc1` (centres unmarked) [Example 182, 2-(4-(4-Fluorobenzamido)phenyl)-3,3-dimethyl-1,2,3,4-tetrahydroquinoline-6-carboxylic acid], the E30 was determined as 1.26.

For `CC(C)(C)c1ccc(-c2cccc(C3Nc4c(cc(Cl)cc4C(=O)NS(C)(=O)=O)CC3(C)C)c2)cc1` (centres unmarked) [Example 144, N-[2-(4′-tert-Butyl-biphenyl-3-yl)-6-chloro-3,3-dimethyl-1,2,3,4-tetrahydro-quinoline-8-carbonyl]-methanesulfonamide], the E30 was 1.25.

Consider `CC(C)(C)c1ccc(-c2cccc(C3Nc4ccc(C(=O)NS(C)(=O)=O)cc4CC3(C)C)c2)cc1` (centres unmarked) [Example 83, N-[2-(4′-tert-Butyl-biphenyl-3-yl)-3,3-dimethyl-1,2,3,4-tetrahydro-quinoline-6-carbonyl]-methanesulfonamide], for which the E30 amounted to 1.35.

In the case of `CC1(C)Cc2c(cc(Cl)cc2C(=O)NS(C)(=O)=O)NC1c1cccc(N2CCOCC2)c1` (centres unmarked) [Example 149, N-[7-Chloro-3,3-dimethyl-2-(3-morpholin-4-yl-phenyl)-1,2,3,4-tetrahydro-quinoline-5-carbonyl]-methanesulfonamide], the E30 is on record as 1.26.

As to `CC(C)N1CCN(c2cc(F)cc(C3Nc4ccc(C(=O)NS(C)(=O)=O)cc4CC3(C)C)c2)CC1` (centres unmarked) [Example 75, N-{2-[3-Fluoro-5-(4-isopropyl-piperazin-1-yl)-phenyl]-3,3-dimethyl-1,2,3,4-tetrahydro-quinoline-6-carbonyl}-methanesulfonamide], the E30 came out at 1.19.

For `CNCCN(C)c1cccc(C2Nc3ccc(C(=O)O)cc3CC2(C)C)c1` (centres unmarked) [Example 120, 3,3-Dimethyl-2-{3-[methyl-(2-methylamino-ethyl)-amino]-phenyl}-1,2,3,4-tetrahydro-quinoline-6-carboxylic acid], the E30 is recorded as 1.5.

Take `CC1(C)Cc2cc(C(=O)O)ccc2NC1c1cccc(C(=O)NC2CC2)c1` (centres unmarked) [Example 170, 2-(3-(Cyclopropylcarbamoyl)phenyl)-3,3-dimethyl-1,2,3,4-tetrahydroquinoline-6-carboxylic acid]: the E30 was 1.36.

Compound `CC(C)(C)c1ccc(-c2cccc(C3Nc4c(cc(Cl)cc4C(=O)NS(=O)(=O)C4CC4)CC3(C)C)c2)cc1` (centres unmarked) [Example 143, Cyclopropanesulfonic acid [2-(4′-tert-butyl-biphenyl-3-yl)-6-chloro-3,3-dimethyl-1,2,3,4-tetrahydro-quinoline-8-carbonyl]-amide] yielded an E30 of 1.33.

In turn, `CC(C)S(=O)(=O)Nc1cccc(C2Nc3ccc(C(=O)O)cc3CC2(C)C)c1` (centres unmarked) [Example 166, 3,3-Dimethyl-2-(3-(1-methylethylsulfonamido)phenyl)-1,2,3,4-tetrahydroquinoline-6-carboxylic acid] returned an E30 of 1.43.

`CC1(C)Cc2cc(C(=O)O)ccc2NC1c1cccc(N2C(=O)OCC2Cc2ccccc2)c1` (stereo in doubt) [Example 127, 2-[3-((R)4-Benzyl-2-oxo-oxazolidin-3-yl)-phenyl]-3,3-dimethyl-1,2,3,4-tetrahydro-quinoline-6-carboxylic acid] returned an E30 of 1.26.

The compound `CC(C)[C@H]1COC(=O)N1c1cccc(C2Nc3ccc(C(=O)O)cc3CC2(C)C)c1` (some centres unmarked) [Example 122] registered an E30 of 1.39.

Regarding `CNC(=O)C(C)(C)Nc1cccc(C2Nc3c(cc(Cl)cc3C(=O)O)CC2(C)C)c1` (centres unmarked) [Example 79, 6-Chloro-3,3-dimethyl-2-[3-(1-methyl-1-methylcarbamoyl-ethylamino)-phenyl]-1,2,3,4-tetrahydro-quinoline-8-carboxylic acid], the E30 was determined as 1.33.

With `CN1CCN(c2cccc(C3Nc4ccc(C(=O)NS(=O)(=O)C5CC5)cc4CC3(C)C)c2)C(=O)C1=O` (centres unmarked) [Example 129, Cyclopropanesulfonic acid {3,3-dimethyl-2-[3-(4-methyl-2,3-dioxo-piperazin-1-yl)-phenyl]-1,2,3,4-tetrahydro-quinoline-6-carbonyl}-amide], the E30 is 1.25.

Turning to `CC1(C)Cc2cc(C(=O)O)ccc2NC1c1ccccc1NC(=O)C1CC1` (centres unmarked) [Example 214, 2-(2-(Cyclopropanecarboxamido)phenyl)-3,3-dimethyl-1,2,3,4-tetrahydroquinoline-6-carboxylic acid], the E30 is on record as 1.41.

Take `CC1(C)Cc2c(cc(F)cc2C(=O)NS(C)(=O)=O)NC1c1cccc(N2CCOCC2)c1` (centres unmarked) [Example 135, N-[7-Fluoro-3,3-dimethyl-2-(3-morpholin-4-yl-phenyl)-1,2,3,4-tetrahydro-quinoline-5-carbonyl]-methanesulfonamide]: the E30 stood at 1.31.

As for `CN(C)S(=O)(=O)Nc1cccc(C2Nc3ccc(C(=O)O)cc3CC2(C)C)c1` (centres unmarked) [Example 25, 2-(3-(N,N-dimethylsulfamoylamino)phenyl)-3,3-dimethyl-1,2,3,4-tetrahydroquinoline-6-carboxylic acid], the E30 came out at 1.29.

Take `CN(C)c1ccc(-c2cccc(C3Nc4c(cc(Cl)cc4C(=O)NS(=O)(=O)C4CC4)CC3(C)C)c2)cc1` (centres unmarked) [Example 141, Cyclopropanesulfonic acid [6-chloro-2-(4′-dimethylamino-biphenyl-3-yl)-3,3-dimethyl-1,2,3,4-tetrahydro-quinoline-8-carbonyl]-amide]: the E30 is 1.3.

As for `CN1CCN(c2cccc(C3Nc4ccc(C(=O)O)cc4CC3(C)C)c2)CC1` (centres unmarked) [Example 99, 3,3-Dimethyl-2-[3-(4-methyl-piperazin-1-yl)-phenyl]-1,2,3,4-tetrahydro-quinoline-6-carboxylic acid], the E30 came out at 1.42.

With `CC1(C)Cc2cc(C(=O)O)ccc2NC1c1ccc(F)c(NC(=O)C2CCCCC2)c1` (centres unmarked) [Example 211, 2-(3-(Cyclohexanecarboxamido)-4-fluorophenyl)-3,3-dimethyl-1,2,3,4-tetrahydroquinoline-6-carboxylic acid], the E30 came to 1.41.

For `CC1(C)Cc2cc(C(=O)NS(C)(=O)=O)ccc2NC1c1cccc(N2CC(F)C2)c1` (centres unmarked) [Example 154, N-{2-[3-(3-Fluoro-azetidin-1-yl)-phenyl]-3,3-dimethyl-1,2,3,4-tetrahydro-quinoline-6-carbonyl}-methanesulfonamide], the E30 turned out to be 1.24.

With `CC(=O)N1CCN(c2cccc(C3Nc4c(cc(Cl)cc4C(=O)O)CC3(C)C)c2)CC1` (centres unmarked) [Example 81, 2-[3-(4-Acetyl-piperazin-1-yl)-phenyl]-6-chloro-3,3-dimethyl-1,2,3,4-tetrahydro-quinoline-8-carboxylic acid], the E30 stood at 2.85.

On to `CC1(C)Cc2cc(C(=O)O)ccc2NC1c1cc(F)cc(N2CCCC2=O)c1` (centres unmarked) [Example 76, 2-[3-Fluoro-5-(2-oxo-pyrrolidin-1-yl)-phenyl]-3,3-dimethyl-1,2,3,4-tetrahydro-quinoline-6-carboxylic acid], for which the E30 amounted to 1.47.

In the case of `CC1(C)Cc2cc(C(=O)NS(=O)(=O)C3CC3)ccc2NC1c1cccc(N2CCOC2=O)c1` (centres unmarked) [Example 116, Cyclopropanesulfonic acid {3,3-dimethyl-2-[3-(2-oxo-oxazolidin-3-yl)-phenyl]-1,2,3,4-tetrahydro-quinoline-6-carbonyl}-amide], the E30 came to 1.2.

`CC1(C)Cc2cc(C(=O)O)ccc2NC1c1cccc(N2C(=O)OCC2(C)C)c1` (centres unmarked) [Example 34, 2-[3-(4,4-Dimethyl-2-oxo-oxazolidine-3-yl)-phenyl]-3,3-dimethyl-1,2,3,4-tetrahydro-quinoline-6-carboxylic acid] yielded an E30 of 1.15.

`COC(=O)c1cc(Cl)cc2c1NC(c1cccc(NC(C)(C)C(=O)O)c1)C(C)(C)C2` (centres unmarked) [Example 78, 2-[3-(1-Carboxy-1-methyl-ethylamino)-phenyl]-6-chloro-3,3-dimethyl-1,2,3,4-tetrahydro-quinoline-8-carboxylic acid methyl ester]: the E30 stood at 1.79.

Turning to `Cc1ccccc1N1CCN(c2cccc(C3Nc4c(cc(F)cc4C(=O)O)CC3(C)C)c2)CC1` (centres unmarked) [Example 92, 6-Fluoro-3,3-dimethyl-2-[3-(4-o-tolyl-piperazin-1-yl)-phenyl]-1,2,3,4-tetrahydro-quinoline-8-carboxylic acid], the E30 came to 1.23.

For `CNC(=O)C(C)(C)Nc1cccc(C2Nc3ccc(C(=O)NS(=O)(=O)C4CC4)cc3CC2(C)C)c1` (centres unmarked) [Example 47, 2-[3-(6-Cyclopropanesulfonylaminocarbonyl-3,3-dimethyl-1,2,3,4-tetrahydro-quinolin-2-yl)-phenylamino]-2,N-dimethyl-propionamide], the E30 stood at 1.23.

In turn, `CC(C)C(=O)Nc1cc(C2Nc3ccc(C(=O)O)cc3CC2(C)C)ccc1Cl` (centres unmarked) [Example 177, 2-(4-Chloro-3-isobutyramidophenyl)-3,3-dimethyl-1,2,3,4-tetrahydroquinoline-6-carboxylic acid] showed an E30 of 1.4.

These data come from patent publication US8586747B2, “3,3-dimethyl tetrahydroquinoline derivatives” (Hoffmann-La Roche Inc., priority 2010, dated 2013).
